Data reported in PubChem BioAssay AID1963445 (Molecular Pharmacology Branch, DTP, NCI, 2024).

Test system: MCF7 complex spheroid growth, % test/control
Test: Anticancer human tumor MCF7 cell line growth inhibition [Asc];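 note: spheroids exposed to compounds for 7 days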;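 for viability, T/C: 100% = DMSO vehicle control wells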
Details: for IC50: curve of first compound; for viability, T/C: stronger effect = lower value
In short: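 Spheroid model: tumor line + HUVEC + hMSC. Single agents and combinations; top conc. at/near clinical Cmax (10 microM if undetermined), half-log dilutions. DMSO stocks at 800-fold test concentration.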

[1] = second compound 0.00316 µM, first compound 0.0316 µM
[2] = second compound 0.00316 µM, first compound 0.1 µM
[3] = second compound 0.00316 µM, first compound 0.316 µM
[4] = second compound 0.00316 µM, first compound 1 µM
[5] = second compound 0.01 µM, first compound 0.0316 µM
[6] = second compound 0.01 µM, first compound 0.1 µM
[7] = second compound 0.01 µM, first compound 0.316 µM
[8] = second compound 0.01 µM, first compound 1 µM
[9] = second compound 0.0316 µM, first compound 0.0316 µM
[10] = second compound 0.0316 µM, first compound 0.1 µM
[11] = second compound 0.0316 µM, first compound 0.316 µM
[12] = second compound 0.0316 µM, first compound 1 µM
[13] = second compound 0.1 µM, first compound 0.0316 µM
[14] = second compound 0.1 µM, first compound 0.1 µM
[15] = second compound 0.1 µM, first compound 0.316 µM
[16] = second compound 0.1 µM, first compound 1 µM
[17] = second compound 0.316 µM, first compound 0.0316 µM
[18] = second compound 0.316 µM, first compound 0.1 µM
[19] = second compound 0.316 µM, first compound 0.316 µM
[20] = second compound 0.316 µM, first compound 1 µM
[21] = second compound 1 µM, first compound 0.0316 µM
[22] = second compound 1 µM, first compound 0.1 µM
[23] = second compound 1 µM, first compound 0.316 µM
[24] = second compound 1 µM, first compound 1 µM

Work on `COc1c(OCCCN2CCOCC2)ccc2c3n(c(=NC(=O)c4cnc(N)nc4)nc12)CCN3` + CNC(C)C(=O)NC1CN(S(=O)(=O)c2cccc(S(=O)(=O)N3CCC4CCC(C(=O)NC(c5ccccc5)c5ccccc5)N4C(=O)C(NC(=O)C(C)NC)C3)c2)CCC2CCC(C(=O)NC(c3ccccc3)c3ccccc3)N2C1=O yielded an IC50 (second compound 0.00316 µM) of 3.2 nM, an IC50 (second compound 0.01 µM) of less than 3.16 nM and an IC50 (second compound 0.0316 µM) of less than 3.16 nM. The IC50 (second compound 0.1 µM) was less than 3.16 nM, the IC50 (second compound 0.316 µM) was less than 3.16 nM and the IC50 (second compound 1 µM) was less than 3.16 nM. For the same compound, the viability, T/C (second compound 0.00316 µM, first compound 0.00316 µM) was 50.2%, the viability, T/C (second compound 0.00316 µM, first compound 0.01 µM) was 35.3% and the viability, T/C [1] was 14.7%. The viability, T/C [2] was 8.43%, the viability, T/C [3] was 8.17% and the viability, T/C [4] was 8.35%. For the same compound, the viability, T/C (second compound 0.01 µM, first compound 0.00316 µM) was 10.9%, the viability, T/C (second compound 0.01 µM, first compound 0.01 µM) was 9.75% and the viability, T/C [5] was 9.42%. The viability, T/C [6] was 8.15%, the viability, T/C [7] was 6.06% and the viability, T/C [8] was 8.55%. It also gave a viability, T/C (second compound 0.0316 µM, first compound 0.00316 µM) of 12.6%, a viability, T/C (second compound 0.0316 µM, first compound 0.01 µM) of 10.9% and a viability, T/C [9] of 9.42%. It also gave a viability, T/C [10] of 9.87%, a viability, T/C [11] of 7.86% and a viability, T/C [12] of 8.09%. For the same compound, the viability, T/C (second compound 0.1 µM, first compound 0.00316 µM) was 13.9%, the viability, T/C (second compound 0.1 µM, first compound 0.01 µM) was 11.1% and the viability, T/C [13] was 10.8%. For the same compound, the viability, T/C [14] was 12%, the viability, T/C [15] was 10.7% and the viability, T/C [16] was 8.86%. The viability, T/C (second compound 0.316 µM, first compound 0.00316 µM) was 11.8%, the viability, T/C (second compound 0.316 µM, first compound 0.01 µM) was 9.96% and the viability, T/C [17] was 10.1%. It also gave a viability, T/C [18] of 10%, a viability, T/C [19] of 8.17% and a viability, T/C [20] of 8.52%. It also gave a viability, T/C (second compound 1 µM, first compound 0.00316 µM) of 11.3%, a viability, T/C (second compound 1 µM, first compound 0.01 µM) of 9.91% and a viability, T/C [21] of 13%. It also gave a viability, T/C [22] of 10.5%, a viability, T/C [23] of 9.23% and a viability, T/C [24] of 9.11%.

`C=C(F)C(=O)N1CCN(c2nc(OCC3CCCN3C)nc3c2CCN(c2cccc4cccc(Cl)c24)C3)CC1CC#N` (stereo unspecified) + CNC(C)C(=O)NC1CN(S(=O)(=O)c2cccc(S(=O)(=O)N3CCC4CCC(C(=O)NC(c5ccccc5)c5ccccc5)N4C(=O)C(NC(=O)C(C)NC)C3)c2)CCC2CCC(C(=O)NC(c3ccccc3)c3ccccc3)N2C1=O showed an IC50 (second compound 0.00316 µM) of less than 31.6 nM, an IC50 (second compound 0.01 µM) of less than 31.6 nM and an IC50 (second compound 0.0316 µM) of less than 31.6 nM. The IC50 (second compound 0.1 µM) was less than 31.6 nM, the IC50 (second compound 0.316 µM) was less than 31.6 nM and the IC50 (second compound 1 µM) was less than 31.6 nM. It also gave a viability, T/C [1] of 47.7%, a viability, T/C [2] of 38.8% and a viability, T/C [3] of 29.2%. It also gave a viability, T/C [4] of 15.9%, a viability, T/C (second compound 0.00316 µM, first compound 3.16 µM) of 1.96% and a viability, T/C (second compound 0.00316 µM, first compound 10 µM) of 0.09%. The viability, T/C [5] was 14%, the viability, T/C [6] was 12% and the viability, T/C [7] was 15%. The viability, T/C [8] was 9.45%, the viability, T/C (second compound 0.01 µM, first compound 3.16 µM) was 2.95% and the viability, T/C (second compound 0.01 µM, first compound 10 µM) was 0.08%. The viability, T/C [9] was 13.4%, the viability, T/C [10] was 9.36% and the viability, T/C [11] was 10.1%. The viability, T/C [12] was 7.62%, the viability, T/C (second compound 0.0316 µM, first compound 3.16 µM) was 2.55% and the viability, T/C (second compound 0.0316 µM, first compound 10 µM) was 0.08%. It also gave a viability, T/C [13] of 12%, a viability, T/C [14] of 10.8% and a viability, T/C [15] of 11%. For the same compound, the viability, T/C [16] was 7.97%, the viability, T/C (second compound 0.1 µM, first compound 3.16 µM) was 1.68% and the viability, T/C (second compound 0.1 µM, first compound 10 µM) was 0.08%. It also gave a viability, T/C [17] of 12%, a viability, T/C [18] of 12% and a viability, T/C [19] of 11.9%. The viability, T/C [20] was 7.65%, the viability, T/C (second compound 0.316 µM, first compound 3.16 µM) was 2.03% and the viability, T/C (second compound 0.316 µM, first compound 10 µM) was 0.1%. The viability, T/C [21] was 12.6%, the viability, T/C [22] was 10.9% and the viability, T/C [23] was 10.3%. The viability, T/C [24] was 7.96%, the viability, T/C (second compound 1 µM, first compound 3.16 µM) was 1.41% and the viability, T/C (second compound 1 µM, first compound 10 µM) was 0.18%.

`CCN1CCN(Cc2ccc(Nc3ncc(F)c(-c4cc(F)c5nc(C)n(C(C)C)c5c4)n3)nc2)CC1` + CCN1C(C(=O)NC23CCC(C(=O)O)(CC2)CC3)C(c2cccc(Cl)c2F)C2(C(=O)Nc3cc(Cl)ccc32)C12CCCCC2 was tested, and the IC50 (second compound 0.00949 µM) was greater than 1000 nM, the IC50 (second compound 0.03 µM) was greater than 1000 nM and the IC50 (second compound 0.0949 µM) was less than 3.16 nM. For the same compound, the IC50 (second compound 0.3 µM) was less than 3.16 nM, the IC50 (second compound 0.949 µM) was less than 3.16 nM and the IC50 (second compound 3 µM) was less than 3.16 nM. For the same compound, the viability, T/C (second compound 0.00949 µM, first compound 0.00316 µM) was 99%, the viability, T/C (second compound 0.00949 µM, first compound 0.01 µM) was 112% and the viability, T/C (second compound 0.00949 µM, first compound 0.0316 µM) was 90.4%. The viability, T/C (second compound 0.00949 µM, first compound 0.1 µM) was 92.4%, the viability, T/C (second compound 0.00949 µM, first compound 0.316 µM) was 85.6% and the viability, T/C (second compound 0.00949 µM, first compound 1 µM) was 71.7%. For the same compound, the viability, T/C (second compound 0.03 µM, first compound 0.00316 µM) was 120%, the viability, T/C (second compound 0.03 µM, first compound 0.01 µM) was 99.9% and the viability, T/C (second compound 0.03 µM, first compound 0.0316 µM) was 88.2%. For the same compound, the viability, T/C (second compound 0.03 µM, first compound 0.1 µM) was 63.7%, the viability, T/C (second compound 0.03 µM, first compound 0.316 µM) was 59% and the viability, T/C (second compound 0.03 µM, first compound 1 µM) was 66.1%. For the same compound, the viability, T/C (second compound 0.0949 µM, first compound 0.00316 µM) was 53.9%, the viability, T/C (second compound 0.0949 µM, first compound 0.01 µM) was 45.3% and the viability, T/C (second compound 0.0949 µM, first compound 0.0316 µM) was 41.8%. The viability, T/C (second compound 0.0949 µM, first compound 0.1 µM) was 42.9%, the viability, T/C (second compound 0.0949 µM, first compound 0.316 µM) was 40.3% and the viability, T/C (second compound 0.0949 µM, first compound 1 µM) was 47.1%. It also gave a viability, T/C (second compound 0.3 µM, first compound 0.00316 µM) of 31.8%, a viability, T/C (second compound 0.3 µM, first compound 0.01 µM) of 30.2% and a viability, T/C (second compound 0.3 µM, first compound 0.0316 µM) of 27.7%. The viability, T/C (second compound 0.3 µM, first compound 0.1 µM) was 30.9%, the viability, T/C (second compound 0.3 µM, first compound 0.316 µM) was 34.5% and the viability, T/C (second compound 0.3 µM, first compound 1 µM) was 40.2%. The viability, T/C (second compound 0.949 µM, first compound 0.00316 µM) was 20.6%, the viability, T/C (second compound 0.949 µM, first compound 0.01 µM) was 17.6% and the viability, T/C (second compound 0.949 µM, first compound 0.0316 µM) was 20.5%. The viability, T/C (second compound 0.949 µM, first compound 0.1 µM) was 21.5%, the viability, T/C (second compound 0.949 µM, first compound 0.316 µM) was 24.9% and the viability, T/C (second compound 0.949 µM, first compound 1 µM) was 20%. It also gave a viability, T/C (second compound 3 µM, first compound 0.00316 µM) of 13.1%, a viability, T/C (second compound 3 µM, first compound 0.01 µM) of 14% and a viability, T/C (second compound 3 µM, first compound 0.0316 µM) of 14.8%. For the same compound, the viability, T/C (second compound 3 µM, first compound 0.1 µM) was 14.6%, the viability, T/C (second compound 3 µM, first compound 0.316 µM) was 12.7% and the viability, T/C (second compound 3 µM, first compound 1 µM) was 13.4%.
